Measurements from patent US11241440B2, “Dihydrooxadiazine compounds for treating infections and cancer” (VALORALIA I MÁS D, SL, priority 2016, dated 2022).

Test system: M. chelonae
Test: Kirby-Bauer disk diffusion susceptibility test
Type: cell-based
Conditions: M. chelonae strain 870, isolation year 2011

## Penicillin
  Characteristics of strains: susceptibility or resistance: R
